# Results as given in PMC8972805, “Monomodular Pseudomonas aeruginosa phage JG004 lysozyme (Pae87) contains a bacterial surface-active antimicrobial peptide-like region and a possible substrate-binding subdomain” (Acta Crystallographica. Section D, Structural Biology, 2022).
# Target: T1, Pae87 (Pseudomonas phage JG004, UniProt F4YDQ3)
# T1 construct: gene PJG4_087; full length, 186 residues, N-terminal 6xHis tag (pET-28a(+), tag kept, up to two tag residues modelled), synthetic gene, expressed in E. coli BL21(DE3); one molecule in asymmetric unit of the complex
# T1 sequence (F4YDQ3 entry or part of it): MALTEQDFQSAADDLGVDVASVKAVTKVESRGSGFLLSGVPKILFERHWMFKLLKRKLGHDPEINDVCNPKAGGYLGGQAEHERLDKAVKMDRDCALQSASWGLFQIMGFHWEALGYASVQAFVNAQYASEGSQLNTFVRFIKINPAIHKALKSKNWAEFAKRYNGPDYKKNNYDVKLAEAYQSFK
# Assay: X-ray crystal structure of complex, […] Å
# Type: binding
# Settings: fragment from PAO1 peptidoglycan hydrolysed by Pae87; second site about 18 Å from catalytic site (helices 4, 5 and 7); Tris-HCl pH 8.0, PEG MME 5000
smiles,measurement,value
CC(=O)N[C@H]1[C@H](O[C@H]2[C@H](O[C@H](C)C(=O)N[C@@H](C)C(=O)N[C@H](CCC(=O)O)C(=O)O)[C@@H](NC(C)=O)C(O)O[C@@H]2CO)O[C@H](CO)[C@@H](O)[C@@H]1O (stereo partly shown) [peptidoglycan fragment],"X-ray crystal structure of complex, 1.27 Å","the peptidoglycan fragment (comprised of linked NAG, MurNAc, L-alanine"
